The target of the assay is T1, BRD4 BD2 (Homo sapiens, UniProt O60885, Y97A).
T1 construct: BRD4 (1-477) (Y97A) and (Y390A); made in house; host or cells: E. coli (pET15b vector)
The assay can be described thus: BRD4 BD2 TR-FRET competition assay. It is filed as binding. As to conditions: mean where stated, n given; read-out: pIC50 in the BRD4 BD2 TR-FRET assay (converted). On the procedure: Bromodomain binding was assessed utilising a time resolved fluorescent resonance energy transfer (TR-FRET) competition assay. […] Europium chelate, conjugated to an anti-6*His antibody, was utilised as the donor fluorophore in the TR-FRET pair.
In order to generate a TR-FRET signal, donor fluorophore is excited by a laser at λ337 nm, which subsequently leads to emission at λ618 nm.
In order to monitor differential binding to either BD1 or BD2, single residue mutations of key tyrosines to alanine were made in the acetyl lysine binding pockets. To validate this approach, a double residue mutant tandem domain protein was produced for each of the BET family members.
Final purification was completed by Superdex 200 prep grade size exclusion column. Purified protein was stored at −80° C. in 20 mM HEPES pH 7.5 and 100 mM NaCl.
All assay components were dissolved in an assay buffer composing of 50 mM HEPES pH7.4, 50 mM NaCl, 5% Glycerol, 1 mM DTT and 1 mM CHAPS. […] An equal volume of 3 nM of anti-6*His Europium chelate was added to all wells, followed by a further 30 minute incubation at room temperature. TR-FRET was detected using a Perkin Elmer Multimode plate reader, by exciting the donor fluorophore at λ337 nm and subsequently, after a delay of 50 μsecs, measuring emission of the donor and acceptor fluorophores at λ615 nm and λ665 nm, respectively.
cA four parameter curve fit of the following form was then applied: y=a+((b−a)/(1+(10^x/10^c)^d) • Where ‘a’ is the minimum, ‘b’ is the Hill slope, ‘c’ is the pIC50 and ‘d’ is the maximum.
On the technique in general: TR-FRET usually uses a lanthanide donor and a delayed reading to cut background.

Take `CNC(=O)c1cc(C(=O)NCCc2cnn(C)c2)cc2c1O[C@@H](C)[C@@H]2c1ccccc1` [Example 188, (2S,3R)-N^7,2-dimethyl-N^5-(2-(1-methyl-1H-pyrazol-4-yl)ethyl)-3-phenyl-2,3-dihydrobenzofuran-5,7-dicarboxamide]: the IC50 is 1 to 100 µM.

As to `CNC(=O)c1cc(C(=O)Nc2cn[nH]c2)cc2c1O[C@@H](CF)[C@@H]2c1ccccc1` [Example 186, (2R,3R)-2-(fluoromethyl)-N^7-methyl-3-phenyl-N^5-(1H-pyrazol-4-yl)-2,3-dihydrobenzofuran-5,7-dicarboxamide], the IC50 is 1 to 100 µM. For the compound `CNC(=O)c1cc(C(=O)Nc2cnn(C)c2)cc2c1O[C@@H](CF)[C@@H]2c1ccccc1` [Example 187, (2R,3R)-2-(fluoromethyl)-N^7-methyl-N^5-(1-methyl-1H-pyrazol-4-yl)-3-phenyl-2,3-dihydrobenzofuran-5,7-dicarboxamide], the IC50 is 1 to 100 µM.

Consider `CNC(=O)c1cc(C(=O)N[C@H]2[C@@H]3COC[C@@H]32)cc2c1O[C@@H](C)[C@@H]2c1cccc(OCCOC)c1` [Example 201, (2S,3R)-N^5-((1R,5S,6r)-3-oxabicyclo[3.1.0]hexan-6-yl)-3-(3-(2-methoxyethoxy)phenyl)-N^7,2-dimethyl-2,3-dihydrobenzofuran-5,7-dicarboxamide], for which the IC50 is 1 to 100 µM.

On to `CNC(=O)c1cc(C(=O)Nc2nncn2C)cc2c1O[C@@H](CF)[C@@H]2c1ccccc1` [Example 195, (2R,3R)-2-(fluoromethyl)-N^7-methyl-N^5-(4-methyl-4H-1,2,4-triazol-3-yl)-3-phenyl-2,3-dihydrobenzofuran-5,7-dicarboxamide], for which the IC50 was 1 to 100 µM.

Source of the values: patent publication US10583112B2, “Benzo[b]furans as bromodomain inhibitors” (GlaxoSmithKline Intellectual Property (No. 2) Limited, priority 2016, dated 2020).
